From US20250263408A1 (Uniquest Pty Ltd, priority 2022, published 2025)

How the values were obtained:
[1] = tested on: Ba/F3-WT (wild type) cells; assay: Ba/F3 Proliferation Assay, Ba/F3-WT (wild type) cells with mIL-3 (Resazurin); assay type: cell-based; settings: Mus musculus, BaF3, 48 h, Ba/F3-WT cells +mIL-3, 48-hour incubation
Syk = target: T1, Syk (Homo sapiens, UniProt P43405); assay: Syk Biochemical Assay (ADP-Glo luminescence); settings: ATP 40 μM final, 60 minutes, read-out: SYK Biochem IC50
T1 construct: purchased Promega
Experimental: Compounds were serially diluted in 100% DMSO, prior to an intermediate dilution in water. In a low volume white 384-well Proxiplate (Perkin Elmer), 1 μL of compound (0.4% final DMSO) was added to 3 μL of 10 ng/well Syk (Promega) and 0.2 mg/mL Poly-E4Y1 substrate (Promega) in assay buffer (final 40 mM Tris-HCl pH 7.4, 20 mM MgCl2, 0.1 mg/mL BSA) for 5 minutes. The reaction was initiated by addition of 1 μL of ATP (40 μM final) and allowed to proceed for 60 minutes at room temperature. The reaction was terminated by addition of 5 μL of ADP-Glo Reagent Mix (Promega) containing 1 mM MgCl2 for 45 minutes at room temperature. 10 μL of Kinase Detection Reagent (Promega) was added and incubated for 10 minutes at room temperature, before luminescence was measured using an Ensight Multimode Plate Reader (Perkin Elmer).

Ba/F3-Syk cells = target: T2, Ba/F3-Syk cells (Homo sapiens, UniProt P43405); assay: Ba/F3 Proliferation Assay, Ba/F3-Syk cells (Resazurin); assay type: cell-based; settings: 48-hour incubation
T2 construct: fused on or other part: Possible but unprinted fusion partner: TEL (ETV6), the usual partner for Ba/F3 lines transformed by Syk; Nothing on a partner is printed

Row | SMILES | EC50 [1] [µM] | IC50 (Syk) [µM] | EC50 (Ba/F3-Syk cells) [µM]
1 | CC1(C)CNC[C@@H](COc2nc(-c3ccn(CC(F)F)c3)cc3ncccc23)O1 [Compound 6.13, 7-[1-(2,2-difluoroethyl)-1H-pyrrol-3-yl]-5-{[(2S)-6,6-dimethylmorpholin-2-yl]methoxy}-1,6-naphthyridine] | 2.05 | 0.0146 | 0.0218
2 | COCCn1ccc(-c2cc3ncccc3c(OC[C@@H]3CNCC(C)(C)O3)n2)c1 [Compound 6.16, 5-{[(2S)-6,6-dimethylmorpholin-2-yl]methoxy}-7-[1-(2-methoxyethyl)-1H-pyrrol-3-yl]-1,6-naphthyridine] | 3.12 | 0.0284 | 0.0419
3 | CC1(C)CNC[C@@H](COc2nc(-c3cnn(CC(F)F)c3)cc3ncccc23)O1 [Compound 6.20, 7-[1-(2,2-difluoroethyl)-1H-pyrazol-4-yl]-5-{[(2S)-6,6-dimethylmorpholin-2-yl]methoxy}-1,6-naphthyridine] | 2.18 | 0.0091 | 0.0321
4 | CC(C)n1ccc(-c2cc3ncccc3c(OC[C@@H]3CNCC4(CC4)O3)n2)c1 [Compound 6.22, 5-{[(5S)-4-oxa-7-azaspiro[2.5]octan-5-yl]methoxy}-7-[1-(propan-2-yl)-1-H-pyrrol-3-yl]-1,6-naphthyridine] | 2.09 | 0.0143 | 0.0112
5 | COCCn1ccc(-c2cc3ncccc3c(OC[C@@H]3CNCC4(CC4)O3)n2)c1 [Compound 6.23, 7-[1-(2-methoxyethyl)-1H-pyrrol-3-yl]-5-{[(5S)-4-oxa-7-azaspiro[2.5]octan-5-yl]methoxy}-1,6-naphthyridine] | 2.1 | 0.0559 | 0.0284
6 | CC1(C)CNC[C@@H](COc2nc(-c3ccn(C4COC4)c3)cc3ncccc23)O1 [Compound 6.25, 5-{[(2S)-6,6-dimethylmorpholin-2-yl]methoxy}-7-[1-(oxetan-3-yl)-1H-pyrrol-3-yl]-1,6-naphthyridine] | 1.76 | 0.0205 | 0.0086
7 | C[C@@H](Oc1nc(-c2ccn(CC(F)F)c2)cc2ncccc12)[C@@H]1CNCCO1 [Compound 6.30, 7-[1-(2,2-difluoroethyl)-1H-pyrrol-3-yl]-5-[(1R)-1-[(2S)-morpholin-2-yl]ethoxy]-1,6-naphthyridine] | 1.39 | 0.0141 | 0.0277
8 | CC1(C)CNC[C@@H](COc2cc(-c3ccn(CC(F)F)c3)cc3ncccc23)O1 [Compound 7.6, 7-[1-(2,2-difluoroethyl)-1H-pyrrol-3-yl]-5-{[(2S)-6,6-dimethylmorpholin-2-yl]methoxy}quinoline] | 1.77 | 0.0176 | 0.0285
9 | CC(C)n1ccc(-c2cc(OC[C@@H]3CNCCCO3)c3cccnc3c2)c1 [Compound 7.10, 5-{[(2S)-1,4-oxazepan-2-yl]methoxy}-7-[1-(propan-2-yl)-1H-pyrrol-3-yl]quinoline] | 3.88 | 0.0367 | 0.0447
10 | c1cnc2cc(-c3ccn(C4COC4)c3)cc(OC[C@@H]3CNCCO3)c2c1 [Compound 7.12, 5-{[(2S)-morpholin-2-yl]methoxy}-7-[1-(oxetan-3-yl)-1H-pyrrol-3-yl]quinoline] | 1.56 | 0.0293 | 0.0233
11 | COCCn1ccc(-c2cc(OC[C@@H]3CNCC4(CC4)O3)c3cccnc3c2)c1 [Compound 7.14, 7-[1-(2-methoxyethyl)-1H-pyrrol-3-yl]-5-{[(5S)-4-oxa-7-azaspiro[2.5]octan-5-yl]methoxy}quinoline] | 3.21 | 0.0512 | 0.0225
12 | CC(C)n1ccc(-c2cc(OC[C@@H]3CNCC(C)(C)O3)c3nccnc3c2)c1 [Compound 8.3, 5-{[(2S)-6,6-dimethylmorpholin-2-yl]methoxy}-7-[1-(propan-2-yl)-1H-pyrrol-3-yl]quinoxaline] | 0.833 | 0.0057 | 0.0056
13 | COCCn1ccc(-c2cc(OC[C@@H]3CNCC(C)(C)O3)c3nccnc3c2)c1 [Compound 8.4, 5-{[(2S)-6,6-dimethylmorpholin-2-yl]methoxy}-7-[1-(2-methoxyethyl)-1H-pyrrol-3-yl]quinoxaline] | 0.645 | 0.0074 | 0.0082
14 | CC1(C)CNC[C@@H](COc2cc(-c3ccn(CC(F)F)c3)cc3nccnc23)O1 [Compound 8.5, 7-[1-(2,2-difluoroethyl)-1H-pyrrol-3-yl]-5-{[(2S)-6,6-dimethylmorpholin-2-yl]methoxy}quinoxaline] | 0.735 | 0.0052 | 0.0045
15 | CC(C)n1ccc(-c2cc(OC[C@@H]3CNCCO3)c3nccnc3c2)c1 [Compound 8.6, 5-{[(2S)-morpholin-2-yl]methoxy}-7-[1-(propan-2-yl)-1H-pyrrol-3-yl]quinoxaline] | 0.969 | 0.0108 | 0.00697
16 | FC(F)Cn1ccc(-c2cc(OC[C@@H]3CNCCO3)c3nccnc3c2)c1 [Compound 8.8, 7-[1-(2,2-difluoroethyl)-1H-pyrrol-3-yl]-5-{[(2S)-morpholin-2-yl]methoxy}quinoxaline] | 1.27 | 0.0112 | 0.0162
17 | CC(C)n1ccc(-c2cc(OC[C@@H]3CNCCCO3)c3nccnc3c2)c1 [Compound 8.10, 5-{[(2S)-1,4-oxazepan-2-yl]methoxy}-7-[1-(propan-2-yl)-1H-pyrrol-3-yl]quinoxaline] | 1.62 | 0.0118 | 0.0107
18 | CC(C)n1ccc(-c2cc(OC[C@@H]3CNCC4(CCC4)O3)c3nccnc3c2)c1 [Compound 8.17, 5-{[(6S)-5-oxa-8-azaspiro[3.5]nonan-6-yl]methoxy}-7-[1-(propan-2-yl)-1H-pyrrol-3-yl]quinoxaline] | 0.684 | 0.0147 | 0.0043
19 | FC(F)Cn1ccc(-c2cc(OC[C@@H]3CNCC4(CCC4)O3)c3nccnc3c2)c1 [Compound 8.19, 7-[1-(2,2-difluoroethyl)-1H-pyrrol-3-yl]-5-{[(6S)-5-oxa-8-azaspiro[3.5]nonan-6-yl]methoxy}quinoxaline] | 0.872 | 0.0065 | 0.0064
20 | C1=C(c2cc3ncccc3c(OC[C@@H]3CNCCO3)n2)CCC1 [Compound 10.1, 7-(cyclopent-1-en-1-yl)-5-{[(2S)-morpholin-2-yl]methoxy}-1,6-naphthyridine] | > 10 | 0.209 | 0.487
21 | CC(C)n1cc(-c2cc(OC[C@@H]3CNCC4(CCC4)O3)c3cccnc3c2)cn1 [Compound 11.8, 5-{[(6S)-5-oxa-8-azaspiro[3.5]nonan-6-yl]methoxy}-7-[1-(propan-2-yl)-1H-pyrazol-4-yl]quinoline] | 0.551 | 0.0147 | 0.0074
22 | C[C@@H]1CNC[C@@H](COc2cc(-c3ccn(C(C)(C)C)c3)cc3nccnc23)O1 [Compound 12.8, 7-(1-tert-butyl-1H-pyrrol-3-yl)-5-{[(2S,6R)-6-methylmorpholin-2-yl]methoxy}quinoxaline] | 0.703 | 0.0051 | 0.0013
23 | CC(C)(C)n1cc(-c2cc3ncccc3c(OC[C@@H]3CNC[C@H](C(F)(F)F)O3)n2)cn1 [Compound 13.13, 7-(1-tert-butyl-1H-pyrazol-4-yl)-5-([(2S,6R)-6-(trifluoromethyl)morpholin-2-yl]methoxy}-1,6-naphthyridine] | 1.78 | 0.0163 | 0.0418
24 | CC(C)(C)n1cc(-c2cc3ncccc3c(OC[C@@H]3CNC[C@@H](C(F)(F)F)O3)n2)cn1 [Compound 13.14, 7-(1-tert-butyl-1H-pyrazol-4-yl)-5-{[(2S,6S)-6-(trifluoromethyl)morpholin-2-yl]methoxy}-1,6-naphthyridine] | 1.38 | 0.035 | 0.233
25 | CC(C)(C)n1cc(-c2cc3ncccc3c(OC[C@@H]3CNCC4(COC4)O3)n2)cn1 [Compound 13.15, 7-(1-tert-butyl-1H-pyrazol-4-yl)-5-{[(6S)-2,5-dioxa-8-azaspiro[3.5]nonan-6-yl]methoxy}-1,6-naphthyridine] | 1.91 | 0.0198 | 0.0472
26 | C[C@@H]1NCCO[C@@H]1COc1nc(-c2cnn(C3(C)CC3)c2)cc2ncccc12 [Compound 13.16, 7-[1-(1-methylcyclopropyl)-1H-pyrazol-4-yl]-5-{[(2S,3S)-3-methylmorpholin-2-yl]methoxy}-1,6-naphthyridine] | 0.518 | 0.0317 | 0.043
27 | CCc1ccnc2cc(-c3cnn(C(C)(C)C)c3)nc(OC[C@@H]3CNCC(C)(C)O3)c12 [Compound 14.14, 7-(1-tert-butyl-1H-pyrazol-4-yl)-5-{[(2S)-6,6-dimethylmorpholin-2-yl]methoxy}-4-ethyl-1,6-naphthyridine] | 1.1 | 0.0336 | 0.0206
28 | COc1ccnc2cc(-c3cnn(C(C)(C)C)c3)nc(OC[C@@H]3CNCC(C)(C)O3)c12 [Compound 14.15, 7-(1-tert-butyl-1H-pyrazol-4-yl)-5-{[(2S)-6,6-dimethylmorpholin-2-yl]methoxy}-4-methoxy-1,6-naphthyridine] | 0.519 | 0.0211 | 0.044
